Source: ChEMBL document CHEMBL1126746, “Sulfonylmethanesulfonamide inhibitors of carbonic anhydrase” (J Med Chem, 1993)

Key:
Carbonic anhydrase = type: protein assay, Canis lupus familiaris
Description: In vitro inhibition of crude dog red blood cell carbonic anhydrase

Carbonic anhydrase 2 = Carbonic anhydrase 2 (Homo sapiens, UniProt P00918)
Description: In vitro inhibition of purified human erythrocyte carbonic anhydrase II

[1] = Equilibrium dissociation constant was determined; type: ADME
[2] = Equilibrium dissociation constant of CA complex for enantiomer 2 of compound; type: ADME
[3] = system: Carbonic anhydrase (Oryctolagus cuniculus); assay: Ex vivo inhibition of carbonic anhydrase in homogenate of rabbit iris-ciliary body; expressed as volume/minute of 0.025 N NaOH required to maintain pH of assay mixture at 0.25 mg
[4] = system: Carbonic anhydrase (Oryctolagus cuniculus); assay: Ex vivo inhibition of carbonic anhydrase in homogenate of rabbit iris-ciliary body; expressed as volume/minute of 0.025 N NaOH required to maintain pH of assay mixture at 0.05 mg
[5] = system: Carbonic anhydrase (Oryctolagus cuniculus); assay: Inhibition of carbonic anhydrase activity in a homogenate of rabbit iris-ciliary body at a dose of 0.05 mg (ex vivo)
[6] = system: Carbonic anhydrase (Oryctolagus cuniculus); assay: Inhibition of carbonic anhydrase activity in a homogenate of rabbit iris-ciliary body at a dose of 0.25 mg (ex vivo)
[7] = Equilibrium dissociation constant of CA complex for enantiomer 1 of compound; type: ADME

Description for physchem: Acid dissociation constant was determined

Structure (SMILES) | pKa (physchem) | IC50 (Carbonic anhydrase 2) [µM] | also measured
CCS(N)(=O)=O [ETHANESULFONIC ACID AMIDE] | – | – | IC50 (Carbonic anhydrase): 1000 µM
CCCCCCCCS(=O)(=O)C(C)S(N)(=O)=O (stereo not drawn) | 8.9 | 2.5 | –
CCCCCCCCS(=O)(=O)C(Cl)S(N)(=O)=O (stereo not drawn) | 7.7 | 0.012 | Kd [1]: 0.017 µM
CCCCCCCCS(=O)(=O)C(F)S(N)(=O)=O (stereo not drawn) | 7.5 | 0.003 | Kd [2]: 0.00064 µM; CA activity ((ml of NaOH) min-1) [3]: 0.043; CA activity ((ml of NaOH) min-1) [4]: 0.147; inhibition [5]: 71%; inhibition [6]: 91%; Kd [7]: 0.00357 µM
CCCCCCCCS(=O)(=O)C(Cl)(Cl)S(N)(=O)=O | – | 0.2 | –
NS(=O)(=O)CSc1ccc(O)cc1 | 10.1 | 2.9 | –
NS(=O)(=O)CS(=O)(=O)c1ccc(O)cc1 | 9.1 | 0.4 | –
NS(=O)(=O)CS(=O)(=O)CCc1ccccc1 | 8.4 | 0.1 | –
NS(=O)(=O)CSCCc1ccccc1 | 9.5 | 2 | –
COCCOCCOCS(=O)(=O)CS(N)(=O)=O | – | 1.3 | –
CCCCCCCCS(=O)(=O)CS(N)(=O)=O | 9.4 | 0.022 | –
CCCCCCCCSCS(N)(=O)=O | – | 0.48 | –
NS(=O)(=O)CS(=O)(=O)CCCc1ccccc1 | 8.4 | 0.19 | –
NS(=O)(=O)CSCCCc1ccccc1 | 9.4 | 1.2 | –
COc1ccc2c(c1)S(=O)(=O)C(S(N)(=O)=O)C2 (stereo not drawn) | 8.8 | 0.8 | –
